What was measured:
PrP^Sc [1] = details: for binding to PrP^Sc compared among peptide reagents: pH 4
PrP^Sc [2] = biological target: PrP^Sc (Mus musculus, UniProt P04925)
PrP^Sc [3] = tested on: PrP^Sc
PrP^Sc [4] = tested on: PrP^Sc; remark: listed apart in the source

PrP^Sc (Mus musculus, UniProt P04925), sequence (P04925 23-230 limits assumed): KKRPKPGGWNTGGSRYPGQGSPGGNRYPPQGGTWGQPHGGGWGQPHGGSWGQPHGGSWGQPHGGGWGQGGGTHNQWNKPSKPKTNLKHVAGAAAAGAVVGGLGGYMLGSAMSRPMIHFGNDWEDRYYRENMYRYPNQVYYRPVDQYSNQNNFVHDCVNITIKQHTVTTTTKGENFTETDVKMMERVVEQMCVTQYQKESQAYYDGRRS

| Substance | pH of optimal binding to PrP^Sc (PrP^Sc [1]) | binding to PrP^Sc compared among peptide reagents (PrP^Sc [1]) | other results |
| --- | --- | --- | --- |
| (GGG)KKKKKKKK [SEQ ID NO:85] | 8 | bound equally well | – |
| (GGG)KKRPKPGG [SEQ ID NO:68] | 8 | bound equally well | binding to PrP^Sc in infected mouse brain homogenate (FIG. 4, lane 5) (PrP^Sc [2]): strong binding |
| (GGG)KKRPKPGGWNTGG [SEQ ID NO:67] | – | – | PrP^Sc dissociated from peptide reagent (PrP^Sc [3]): virtually all; PrP^Sc eluted from peptide reagent (PrP^Sc [4]): eluted all |
| (GGG)QWNKPSKPKTN [SEQ ID NO:14] | 8 | bound equally well | – |
| GGGQWNKPSK*KTN, wherein * is N-(cyclopropylmethyl)glycine [SEQ ID NO:111] | – | – | PrP^Sc dissociated from peptide reagent with NaCl (PrP^Sc [3]): little was dissociated; tightness of PrP^Sc binding to peptide reagent (PrP^Sc [3]): bound most tightly |

Reference: US20090099343A1 (priority 2005, published 2009)
